Source: patent US4806642A, “Purine derivatives” (Warner-Lambert Company, priority 1987, dated 1989)

What was measured:
B-cell = experiment: toxicity to B-cell in the presence of 2'-deoxyguanosine; assay type: cell-based; conditions: in the presence of the same amount (10 micromoles) of 2'-deoxyguanosine
Description: (§1) The same compounds also were found by a standard test (Science, 214, 1137, 1981) to be selectively cytotoxic for T-cells in the presence of 2'-deoxyguanosine at a similar concentration range. For example, 2,8-diamino-9-[(2-hydroxyethoxy)methyl)]-9H-purine-6-ol is selectively cytotoxic to T-cell at a concentration of about 30 micromoles in the presence of 10 micromoles of 2'-deoxyguanosine. Similarly, 2-[(2,8-diamino-6-hydroxy-9H-purin-9-yl)methoxy]-1,3-propanediol is selectively cytotoxic to T-cell at a concentration of about 7 micromoles in the presence of 10 micromoles of 2'-deoxyguanosine. Both compounds were nontoxic to B-cell in the presence of the same amount of 2'-deoxyguanosine. Since T-cells play a central role in immune response, use of the compounds of the invention is contemplated for the immunoregulation of autoimmune diseases such as rheumatoid arthritis, systemic lupus erythematosus, inflammatory bowel disease, cancer, and viral diseases, transplantation, juvenile diabetes, myasthenia gravis, and multiple sclerosis. The present invention thus includes compositions containing a compound of formula 1 in treating disease such as autoimmune disease characterized by abnormal immune response in warmblooded animals. […]

T-cells = experiment: selective cytotoxicity for T-cells in the presence of 2'-deoxyguanosine (standard test, Science, 214, 1137, 1981); assay type: cell-based; conditions: in the presence of 10 micromoles of 2'-deoxyguanosine
Description: as §1

Compound | toxicity to B-cell (B-cell) | concentration at which selectively cytotoxic to T-cell (T-cells)
Nc1nc(O)c2nc(N)n(COC(CO)CO)c2n1 [2-[(2,8-Diamino-6-hydroxy-9H-purin-9-yl)methoxy]-1,3-propanediol] | nontoxic | about 7 micromoles
Nc1nc2c(nc(N)n2COCCO)c(=O)[nH]1 [2,8-Diamino-9-[(2-hydroxyethoxy)methyl)]-9H-purin-6-ol] | nontoxic | about 30 micromoles
